Test results from US20170196859A1, “PHARMACEUTICAL COMPOSITION COMPRISING PYRAZINE CARBOXAMIDE COMPOUND AS ACTIVE INGREDIENT” (Astellas Pharma Inc., priority 2014, published 2017).

Columns and labels:
[1] = tested on: human histiocytic lymphoma cell line U-937 cells; assay: Proliferation inhibition, U-937 cells (CellTiter-Glo); format: cell-based; conditions: U-937, 72 h, 3 days culture
Protocol: U-937 is a cell line originated from human histiocytic lymphoma and the BTK expression has been confirmed (J. Immunol. 1994; 152(2):557-565). The human histiocytic lymphoma cell line U-937 cells (Sumitomo Dainippon Pharma Co., Ltd.) cultured in RPMI1640 medium (Sigma) containing 10% bovine serum were seeded into 96 well plates. On the same day, DMSO solutions of the test compound B at a final concentrations from 1 nM to 10 μM or only DMSO (DMSO group) were added thereto to culture the cells at 37° C. in 5% CO2 for 3 days. Thereafter, the cell number was measured using a cell counting reagent (CellTiter-Glo (registered trademark) Luminescent Cell Viability Assay (Promega)). The cell proliferation inhibition rate was calculated as the measured value in the DMSO group set as 0% inhibition and the measured value in the well only with the medium on which the cells have not been seeded set as 100% inhibition.

[2] = biological target: T1, JAK3 kinase (Homo sapiens, UniProt P52333); assay: JAK3 kinase inhibitory activity (QSS Assist JAK3_MSA kit); format: biochemical; conditions: 30 min preincubation, ATP 1 mM
T1 construct: purchased Carna Bioscience QSS Assist JAK3_MSA kit
T1 sequence (P52333 1-1124): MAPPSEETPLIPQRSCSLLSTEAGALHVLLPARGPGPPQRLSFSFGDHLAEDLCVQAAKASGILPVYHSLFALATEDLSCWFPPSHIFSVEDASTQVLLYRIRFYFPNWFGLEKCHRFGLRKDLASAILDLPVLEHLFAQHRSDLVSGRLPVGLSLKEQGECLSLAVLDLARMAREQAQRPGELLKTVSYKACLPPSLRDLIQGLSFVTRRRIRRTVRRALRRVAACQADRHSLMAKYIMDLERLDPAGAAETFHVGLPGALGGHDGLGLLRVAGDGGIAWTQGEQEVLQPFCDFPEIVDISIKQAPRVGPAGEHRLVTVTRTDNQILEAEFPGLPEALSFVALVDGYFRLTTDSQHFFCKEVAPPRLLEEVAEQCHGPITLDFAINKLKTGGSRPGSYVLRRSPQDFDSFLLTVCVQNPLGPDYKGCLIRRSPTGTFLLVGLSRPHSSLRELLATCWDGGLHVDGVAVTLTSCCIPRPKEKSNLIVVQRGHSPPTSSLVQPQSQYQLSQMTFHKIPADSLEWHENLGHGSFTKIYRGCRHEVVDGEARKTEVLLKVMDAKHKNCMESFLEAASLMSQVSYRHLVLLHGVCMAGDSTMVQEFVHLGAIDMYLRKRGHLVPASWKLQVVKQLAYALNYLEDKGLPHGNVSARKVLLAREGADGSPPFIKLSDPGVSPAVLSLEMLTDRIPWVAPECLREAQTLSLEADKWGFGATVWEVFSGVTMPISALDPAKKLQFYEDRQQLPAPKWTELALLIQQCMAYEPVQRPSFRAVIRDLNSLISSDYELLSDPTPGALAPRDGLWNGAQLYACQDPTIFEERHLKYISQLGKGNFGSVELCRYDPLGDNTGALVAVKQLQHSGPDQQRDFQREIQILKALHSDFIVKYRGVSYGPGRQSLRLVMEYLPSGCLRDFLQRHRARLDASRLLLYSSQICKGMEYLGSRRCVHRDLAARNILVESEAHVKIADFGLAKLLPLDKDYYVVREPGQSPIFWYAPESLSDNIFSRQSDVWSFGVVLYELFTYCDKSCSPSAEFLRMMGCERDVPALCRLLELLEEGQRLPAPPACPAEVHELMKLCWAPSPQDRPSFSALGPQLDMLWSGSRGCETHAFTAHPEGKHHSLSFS
Protocol: The JAK3 kinase inhibitory activity was evaluated using QSS Assist JAK3_MSA kit (Carna Bioscience).
The test compound B was dissolved in dimethyl sulfoxide (DMSO) to prepare a solution at a 100-fold concentration as compared to the test concentration. The solution was also 25-fold diluted with an appurtenant assay buffer to obtain a test compound B solution. In addition, JAK3 kinase appurtenant to the kit was used for the reaction.
5 μL of the test compound B solution at a 4-fold concentration, prepared using the aforementioned assay buffer, and 10 μL of a JAK3 kinase solution at a 2-fold concentration were mixed within a well of a 384 well plate, and incubated at room temperature for 30 minutes. Continuously, 5 μL of a substrate peptide/ATP/MgCl2 solution at a 4-fold concentration was added thereto to perform the reaction at room temperature for 1 hour. The substrate peptide was used at a final concentration of 1 μM, ATP at a final concentration of 1 mM, and MgCl2 at a final concentration of 5 mM. Thereafter, 60 μL of an appurtenant termination buffer was added thereto to stop the reaction. The JAK3 kinase activity was calculated by quantifying a product conversion ratio obtained from the substrate peptide peak height and the product (phosphorylated substrate peptide) peak height with LabChip EZ Reader II (PerkinElmer). […]

[3] = tested on: human mantle cell lymphoma cell line Rec-1 cells; assay: Proliferation inhibition, Rec-1 cells (CellTiter-Glo); format: cell-based; conditions: Rec1, 72 h, 3 days culture
Protocol: Rec-1 is a cell line originated from human mantle cell lymphoma, a kind of B-cell malignant neoplasm, and the BTK expression and phosphorylation have been confirmed (Cell Oncol. 2011; 34:141-153). The human mantle cell lymphoma cell line Rec-1 cells (American Type Culture Collection, CRL-3004) cultured in RPMI1640 medium (Sigma) containing 10% bovine serum were seeded into 96 well plates. On the next day, DMSO solutions of the test compound B at final concentrations from 1 nM to 10 μM or only DMSO (DMSO group) were added thereto to culture the cells at 37° C. in 5% CO2 for 3 days. Thereafter, the cell number was measured using a cell counting reagent (CellTiter-Glo (registered trademark) Luminescent Cell Viability Assay (Promega)). The cell proliferation inhibition rate was calculated as the measured value in the DMSO group set as 0% inhibition and the measured value in the well only with the medium on which the cells have not been seeded set as 100% inhibition.

IC50 [1]: 63 nM
IC50 [2]: 0.44 nM
IC50 [3]: 68 nM
SMILES: C=CC(=O)N1CC[C@@H](Oc2nc(Nc3ccc(N4CCC(N5CCN(C)CC5)CC4)cc3)c(C(N)=O)nc2CC)C1 [test compound B, 5-{[(3R)-1-acryloylpyrrolidin-3-yl]oxy}-6-ethyl-3-({4-[4-(4-methylpiperazin-1-yl)piperidin-1-yl]phenyl}amino)pyrazine-2-carboxamide monomethanesulfonate]
